Experimental data: PubChem BioAssay (NCI)
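96-well plates; 48 h exposure; 5 concentrations. Endpoints by linear interpolation between flanking doses. Not reached: highest tested concentration assigned. GI50 is the concentration that inhibits growth by half. TGI is the concentration that stops growth completely.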

Experiments:
Test in all cases: NCI tumour cell line growth inhibition, 48 h
[1] = tested on: HS 578T breast
[2] = tested on: A549 NSCLC
[3] = tested on: OVCAR-8 ovarian
[4] = tested on: NCI-H226 lung
[5] = tested on: UACC-62 melanoma
[6] = tested on: UACC-257 melanoma
[7] = tested on: HT29 colon
[8] = tested on: NCI-H522 lung
[9] = tested on: SR leukemia
[10] = tested on: NCI-H460 lung

SMILES | GI50 [1] [µM] | TGI [1] [µM] | GI50 [2] [µM] | TGI [2] [µM] | GI50 [3] [µM] | TGI [3] [µM] | GI50 [4] [µM] | TGI [4] [µM] | GI50 [5] [µM] | TGI [5] [µM] | GI50 [6] [µM] | TGI [6] [µM] | GI50 [7] [µM] | TGI [7] [µM] | GI50 [8] [µM] | TGI [8] [µM] | GI50 [9] [µM] | TGI [9] [µM] | TGI [10] [µM] | GI50 [10] [µM]
CCCCC1(CN2CCOCC2)S/C(=N/c2nc(CC(=O)OCC)cs2)NC1=O (stereo not given) | 35.8 | > 100 | 33.4 | > 100 | 33.9 | > 100 | 38.6 | > 100 | 28.3 | > 100 | 40.4 | > 100 | 40 | > 100 | 32.1 | > 100 | 26.2 | 65.9 |  | 
N=C(N)SCc1cccc(-c2nc3ccccc3c(=O)o2)c1 |  | > 100 |  | > 100 |  | > 100 |  | > 100 |  | > 100 |  | > 100 |  | > 100 |  | > 100 |  | > 100 | > 100 | 
CCOC(=O)c1c[nH]c2oc(/C=N/N3CC(CN4CCOCC4)OC3=O)cc2c1=O (stereo not given) |  | > 100 |  | > 100 |  | > 100 |  | > 100 |  | > 100 |  | > 100 |  | > 100 |  |  |  | > 100 | > 100 | 
O=[N+]([O-])c1ccc2c(c1)C(c1ccccc1Cl)=Nc1cn[nH]c1N2 | 7.76 | > 25 | 19.7 | > 25 | 17.9 | > 25 | 11.8 | > 25 | 16 | > 25 | > 25 | > 25 | 19.2 | > 25 | 15.5 | > 25 | 15.2 | > 25 | > 25 | 16.1
Cc1c(C2=C(Br)C(=O)N(C)C2=O)c(=O)n(C)c(=O)n1C |  | > 100 |  | > 100 |  | > 100 |  | > 100 |  | 97.9 |  | 32 |  | 42.2 |  | 29.5 |  | 75.9 | > 100 | 
C=C1C(=O)O[C@H]2/C=C(/C)C3=CC(=O)[C@@](C)(C[C@@H](OC(=O)/C(C)=C\C)C12)O3 (stereo not given in full) |  | 57.1 |  | 17.8 |  | 3.94 |  | 11.1 |  | 3.36 |  | 5.69 |  | 1.21 |  | 0.605 |  |  | 11.8 | 
COc1cc(C2=C(c3cn(C)c4ccccc34)COC2=O)cc(OC)c1OC | 0.159 | 3.58 | 0.1 | > 25.6 | 0.338 | > 23.6 | 1.1 | 7.3 |  |  |  |  | 0.0383 |  | 0.0485 | 0.716 | 0.0219 | > 100 | 1.68 | 0.0532
Cn1cc(C2=C(c3cn(CCCCCN)c4ccccc34)C(=O)NC2=O)c2ccccc21 | 11.5 | > 25 | 10.1 | > 25 | 11 | > 25 | > 25 | > 25 | 10.3 | > 25 | 23.1 | > 25 | 7.39 | > 22.8 | 15.5 | > 25 |  |  | > 25 | 9.73
Cc1cc(C2CC(O)C(CO)O2)cc2c(=O)[nH]c(N)nc12 (stereo not given) | > 100 | > 100 | > 100 | > 100 | > 100 | > 100 | > 100 | > 100 | > 100 | > 100 | > 100 | > 100 | > 100 | > 100 | > 100 | > 100 |  |  | > 100 | > 100
Cc1cc(N/N=C/c2nc(-c3ccc(Br)cc3)oc2C)c2cc(Br)ccc2n1 | 4.21 | 26.2 | 2.2 | 5.2 | 2.43 | 6.66 | 17.9 | 48.5 | 1.91 | 4.58 | 6.9 | 21.9 | 3.14 | 13.7 | 2.21 | 5.62 | 0.355 | > 100 |  | 
[Au+].[Au+].[Au+].[c-]1nccn1Cc1ccccc1.[c-]1nccn1Cc1ccccc1.[c-]1nccn1Cc1ccccc1 | 19.8 | 64 | 24.7 | 65.4 | 5.06 | > 42.6 | 14.6 | 71.4 | 5.23 | 21.4 | 3.71 | 7.5 | 16.9 | > 77.4 | 1.58 | 2.95 |  |  | 54.5 | 11.6
Cc1cc(I)cc(CN(C)CCCN2CCOCC2)c1O | 13.5 | > 100 | 59.4 | > 100 | > 100 | > 100 | 99.9 | > 100 | 13.1 | 30.5 | 21.6 | 44.8 | 16.5 | 33.6 |  |  | 19.6 | 48 | > 100 | 35.4
Cc1cc(S(=O)(=O)N/N=C(\Sc2cc(Cl)c(C)cc2S(N)(=O)=O)c2ccc(Cl)cc2)c(Cl)cc1Cl | > 100 | > 100 | 36.6 | > 100 | > 100 | > 100 | 58.3 | > 100 | > 100 | > 100 | 44.5 | > 100 |  |  | 72.7 | > 100 | 64.2 | > 100 | > 100 | > 100
O=C(COc1ccc(/C=C2\CSc3ccccc3C2=O)cc1)Nc1nccs1 | 4.29 | 37.2 | 15.3 | 28.5 | 7.76 | 32.8 | 15.6 | 32.5 | 5.32 | 19 | 12.6 | 25.1 | 4.48 | 16.2 | 1.92 | 4.17 |  |  | 31.9 | 15.9
Cc1cc2c(cc1Cl)SC(=Nc1ccc(Cl)cc1)N(S(=O)(=O)c1ccccc1)S2(=O)=O | 20.7 | 45.9 | 13.7 | 32.2 | 12.4 | 30.8 | 11.5 | 35.4 | 11.6 | 23.8 | 17.4 | 34.9 |  |  | 12.4 | 52.8 | 0.342 | > 100 | 29.2 | 11.8
